The values that follow come from US20080108645A1, “Dihydrotetrabenazines And Pharmaceutical Compositions Containing Them” (CAMBRIDGE LABORATORIES, (IRELAND), LTD., priority 2004, published 2008).

Some results are limits rather than exact numbers.

Assay [1] concerns the target T1, Dopamine D3 Receptor (Homo sapiens, UniProt P35462).
T1 construct: expressed in transfected cells; host or cells: CHO cells
The assay can be described thus: Dopamine D3 receptor radioligand binding. Particulars: 10 μM; 0.7 nM [3H] Spiperone. The method, then:
(§1) (a) Adrenergic α2A Receptor: • Reference: S. Uhlen et al. J. Pharmacol. Exp. Ther., 271:1558-1565 (1994) • Source: Human recombinant insect Sf9 cells • Ligand: 1 nM [^3H] […] J. Pharmacol., 99:803-809, (1990) • Source: Wistar rat cerebral cortex • Ligand: 2 nM [3H]

The target in assay [2] is T2, Sigma σ2 Receptor (Rattus norvegicus, UniProt Q5U3Y7).
T2 construct: Source: Wistar rat brain; from tissue; host or cells: Wistar rat brain
T2 sequence (Q5U3Y7 1-176): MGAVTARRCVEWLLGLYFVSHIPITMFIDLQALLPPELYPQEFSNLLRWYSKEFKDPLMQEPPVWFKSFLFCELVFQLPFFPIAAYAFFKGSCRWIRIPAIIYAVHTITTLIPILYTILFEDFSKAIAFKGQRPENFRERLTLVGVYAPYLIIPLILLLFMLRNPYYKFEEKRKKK
Put plainly: Sigma σ2 receptor radioligand binding. Set-up: species or system Wistar rat. The following applies: 3 nM [3H] Ifenprodil. The method, then: as §1

In assay [3] the target is T3, Dopamine D1 Receptor (Homo sapiens, UniProt P21728).
T3 construct: expressed in transfected cells; host or cells: CHO cells
The assay can be described thus: Dopamine D1 receptor radioligand binding. Particulars: 10 μM; 1.4 nM [3H] SCH-23390. As for the experimental part:
as §1

Assay [4] deals with T4, Serotonin Transporter (SERT) (Homo sapiens, UniProt P31645).
T4 construct: expressed in transfected cells; host or cells: HEK-293 cells
Put plainly: Serotonin transporter (SERT) radioligand binding. The following applies: for IC50 / Percentage Inhibition of Specific Binding, SERT: 0.15 nM [125I] RTI-55; for IC50: read-out: IC50 value (in parentheses), SERT; for Percentage Inhibition of Specific Binding, SERT: 10 μM. As for the experimental part:
as §1

Assay [5] concerns the target T5, VMAT1 (Rattus norvegicus, UniProt Q01818).
T5 construct: The vesicular fraction was isolated in an identical fashion to that described for the brain preparation; from tissue; host or cells: SD rat adrenal medulla chromaffin cells, vesicular fraction
T5 sequence (Q01818 1-521): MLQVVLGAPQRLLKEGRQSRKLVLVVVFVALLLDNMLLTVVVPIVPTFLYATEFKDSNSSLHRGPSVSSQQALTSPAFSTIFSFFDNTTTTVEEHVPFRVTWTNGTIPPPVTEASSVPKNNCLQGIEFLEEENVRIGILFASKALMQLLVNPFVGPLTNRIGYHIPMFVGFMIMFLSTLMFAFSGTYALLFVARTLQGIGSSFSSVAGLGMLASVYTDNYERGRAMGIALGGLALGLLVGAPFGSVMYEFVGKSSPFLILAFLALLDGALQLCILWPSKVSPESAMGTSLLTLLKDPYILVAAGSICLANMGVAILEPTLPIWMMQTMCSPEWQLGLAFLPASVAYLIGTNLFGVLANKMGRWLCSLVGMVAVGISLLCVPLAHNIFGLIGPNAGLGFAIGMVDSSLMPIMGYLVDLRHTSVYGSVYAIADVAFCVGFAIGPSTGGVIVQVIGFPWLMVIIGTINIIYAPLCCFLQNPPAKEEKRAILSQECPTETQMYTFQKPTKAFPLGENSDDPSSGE
Put plainly: VMAT1 functional assay: [3H] dopamine uptake, rat adrenal chromaffin cell vesicles in presence of 10 μM tetrabenazine. The following applies: for IC50: in the presence of 10 μM Tetrabenazine, read-out: IC50, inhibition of [3H] dopamine uptake. Format: biochemical. As for the experimental part:
Thus, adrenal glands were dissected in ice cold PBS, the capsule and cortex of the glands removed and the remaining medullae were minced. After multiple washes with PBS, the tissue was incubated with Ca2+-free collagenase IA solution (250 U/ml) for 30 minutes at 30° C. with gentle stirring. The digested tissue was rinsed three times and the dissociated cells were centrifuged at 3000 rpm to form a pellet, which was resuspended in PBS. The vesicular fraction was isolated in an identical fashion to that described for the brain preparation.
100 μl (approx. 2.5 μg protein) of synaptic vesicles were preincubated with increasing concentrations of test compound (prepared as previously described for binding assay) for 30 minutes (concentration range 10^−9 M-10^−4 M). The assay was performed for 3 minutes at 30° C. in the assay buffer (25 mM HEPES, 100 mM potassium tartrate, 1.7 mM ascorbic acid, 0.05 mM EGTA, 0.1 mM EDTA, 2 mM ATP-Mg^2+, pH 7.5), in the presence of [^3H] dopamine (30 nM final concentration). [^3H] dopamine uptake was measured in the presence of 10 μM tetrabenazine (selectively blocks VMAT2 at this concentration). Non-specific uptake was determined by measuring vesicular [^3H] dopamine uptake at 4° C. The reaction was then terminated by addition of ice-cold buffer assay buffer pH 7.5, containing 2 mM MgSO4 instead of 2 mM ATP-Mg^2+, and rapid filtration achieved through Whatman filters soaked in 0.5% polyethyleneimine. The filters were washed three times with cold buffer using a Brandel Harvester and the radioactivity trapped on the filters was counted using a liquid scintillation counter.

Assay [6] addresses T6, Sigma σ1 Receptor (Homo sapiens, UniProt Q99720).
T6 construct: Source: Human jurkat cells; endogenous in cells; host or cells: Jurkat cells
The assay can be described thus: Sigma σ1 receptor radioligand binding. The following applies: 10 μM; 8 nM [3H] Haloperidol. The method, then: as §1

The subject of assay [7] is Human HEK-293 cells. The assay can be described thus: Cellular assay: inhibition of [3H] serotonin uptake by human embryonic kidney cells. It counts as cell-based. The following applies: for inhibition at 10 µM: Homo sapiens, HEK293. The method, then:
The ability of isomers B and C to inhibit uptake of serotonin (5-hydroxytryptamine) by human embryonic kidney cells was measured using the following assay conditions: […]

The target of assay [8] is T7, Adrenergic α2A Receptor (Homo sapiens, UniProt P08913).
T7 construct: expressed in transfected cells; host or cells: insect Sf9 cells
T7 sequence (P08913 1-465): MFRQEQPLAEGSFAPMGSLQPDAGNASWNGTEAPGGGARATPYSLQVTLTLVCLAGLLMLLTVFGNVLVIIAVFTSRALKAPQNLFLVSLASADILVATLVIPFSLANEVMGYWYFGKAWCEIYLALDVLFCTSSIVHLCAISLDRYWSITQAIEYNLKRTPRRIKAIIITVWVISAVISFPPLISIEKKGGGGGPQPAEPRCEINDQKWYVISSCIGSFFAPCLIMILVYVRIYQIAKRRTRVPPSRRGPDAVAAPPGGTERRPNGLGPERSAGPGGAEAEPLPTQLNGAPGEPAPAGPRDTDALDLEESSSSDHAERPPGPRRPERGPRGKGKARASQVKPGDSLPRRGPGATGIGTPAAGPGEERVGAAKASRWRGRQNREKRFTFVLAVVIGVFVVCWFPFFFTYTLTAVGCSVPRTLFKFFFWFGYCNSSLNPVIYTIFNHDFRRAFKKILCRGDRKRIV
Put plainly: Adrenergic α2A receptor radioligand binding. The following applies: 10 μM; 1 nM [3H] MK-912. The method, then:
as §1

T4 sequence (P31645 whole entry): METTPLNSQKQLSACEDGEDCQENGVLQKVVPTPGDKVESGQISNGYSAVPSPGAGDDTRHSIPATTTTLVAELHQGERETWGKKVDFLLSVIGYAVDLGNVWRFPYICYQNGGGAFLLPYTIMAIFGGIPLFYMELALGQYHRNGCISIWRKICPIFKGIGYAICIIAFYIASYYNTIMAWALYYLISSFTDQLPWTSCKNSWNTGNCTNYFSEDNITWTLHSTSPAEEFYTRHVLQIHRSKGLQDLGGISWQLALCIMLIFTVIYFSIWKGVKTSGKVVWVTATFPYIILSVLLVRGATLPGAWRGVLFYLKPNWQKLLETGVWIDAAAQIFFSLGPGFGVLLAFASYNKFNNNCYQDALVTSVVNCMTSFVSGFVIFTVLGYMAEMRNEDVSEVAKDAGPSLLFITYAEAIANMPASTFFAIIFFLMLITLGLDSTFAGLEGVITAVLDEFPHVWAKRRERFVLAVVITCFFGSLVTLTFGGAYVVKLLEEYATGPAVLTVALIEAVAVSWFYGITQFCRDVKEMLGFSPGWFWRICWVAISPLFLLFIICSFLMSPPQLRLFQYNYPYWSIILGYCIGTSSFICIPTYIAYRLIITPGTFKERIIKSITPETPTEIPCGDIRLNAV
T6 sequence (Q99720 whole entry): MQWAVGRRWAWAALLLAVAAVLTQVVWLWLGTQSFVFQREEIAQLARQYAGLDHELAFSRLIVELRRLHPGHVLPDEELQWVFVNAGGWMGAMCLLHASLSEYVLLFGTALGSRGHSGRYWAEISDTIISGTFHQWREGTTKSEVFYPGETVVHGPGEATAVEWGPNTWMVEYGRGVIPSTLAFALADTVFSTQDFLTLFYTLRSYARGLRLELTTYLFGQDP
T3 sequence (P21728 whole entry): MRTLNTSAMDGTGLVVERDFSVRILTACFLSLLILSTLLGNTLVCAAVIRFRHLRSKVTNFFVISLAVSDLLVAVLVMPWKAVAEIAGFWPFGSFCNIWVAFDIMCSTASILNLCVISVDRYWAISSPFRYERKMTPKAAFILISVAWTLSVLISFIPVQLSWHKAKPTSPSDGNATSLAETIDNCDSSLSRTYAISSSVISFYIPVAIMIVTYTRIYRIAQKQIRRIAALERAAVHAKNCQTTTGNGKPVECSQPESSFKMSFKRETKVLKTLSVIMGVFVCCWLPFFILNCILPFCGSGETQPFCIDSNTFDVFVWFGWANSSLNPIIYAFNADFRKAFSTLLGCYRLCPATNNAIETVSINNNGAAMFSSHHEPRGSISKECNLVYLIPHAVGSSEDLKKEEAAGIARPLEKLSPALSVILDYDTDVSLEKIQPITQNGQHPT
T1 sequence (P35462 whole entry): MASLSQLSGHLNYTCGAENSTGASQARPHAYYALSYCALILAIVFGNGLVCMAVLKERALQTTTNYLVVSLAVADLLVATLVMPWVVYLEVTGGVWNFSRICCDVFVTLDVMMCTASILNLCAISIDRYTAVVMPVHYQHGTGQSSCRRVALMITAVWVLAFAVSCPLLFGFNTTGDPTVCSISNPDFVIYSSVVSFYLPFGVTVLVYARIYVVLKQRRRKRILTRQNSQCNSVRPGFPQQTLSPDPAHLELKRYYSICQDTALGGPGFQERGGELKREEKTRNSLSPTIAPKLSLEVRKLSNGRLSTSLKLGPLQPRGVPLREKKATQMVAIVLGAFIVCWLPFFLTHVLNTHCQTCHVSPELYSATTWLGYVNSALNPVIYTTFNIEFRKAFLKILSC

In general, IC50 refers to the midpoint of a concentration-inhibition curve. For orientation: inhibition means the drop in the measured response relative to a control, in per cent. `COc1cc2c(cc1OC)[C@H]1C[C@H](O)[C@@H](CC(C)C)CN1CC2` (single isomer, unassigned) [Isomer B, 3,11b-cis-dihydrotetrabenazine]: the “Percentage Inhibition of Specific Binding, D3 Receptor” value in assay [1] stood at 7%. Besides, the “Percentage Inhibition of Specific Binding, σ2 Receptor” value in assay [2] (10 μM) is 64%. In addition, in assay [3], the “Percentage Inhibition of Specific Binding, D1 Receptor” value was found to be 1%. In assay [4], the “inhibition of SERT (in words)” value is “potent inhibitors”; the IC50 stood at 350 nM; the “Percentage Inhibition of Specific Binding, SERT” value is 86%. Moreover, in assay [5], the “affinity for VMAT1 (in words)” value is listed as “low affinity for VMAT-1” and the IC50 was over 10000 nM. Besides, the “Percentage Inhibition of Specific Binding, σ1 Receptor” value in assay [6] worked out at 82%. In assay [7], the “mode of action on serotonin uptake (in words)” value is “antagonist” and the inhibition at 10 µM was found to be 56%. Besides, the “Percentage Inhibition of Specific Binding, α2A Receptor” value in assay [8] is given as 12%.
With `COc1cc2c(cc1OC)[C@H]1C[C@@H](O)[C@@H](CC(C)C)CN1CC2` (single isomer, unassigned) [Isomer C, 3,11b-cis-dihydrotetrabenazine], the “Percentage Inhibition of Specific Binding, D3 Receptor” value in assay [1] was 9%. In addition, the inhibition at 10 µM in assay [2] (read-out: Percentage Inhibition of Specific Binding, σ2 Receptor) is 61%. Also, the “Percentage Inhibition of Specific Binding, D1 Receptor” value in assay [3] is given as 6%. Moreover, in assay [4], the “inhibition of SERT (in words)” value is reported as “potent inhibitors”; the IC50 was found to be 2750 nM; the “Percentage Inhibition of Specific Binding, SERT” value worked out at 77%. In assay [5], the “affinity for VMAT1 (in words)” value is “low affinity for VMAT-1” and the IC50 is over 10000 nM. Moreover, the “Percentage Inhibition of Specific Binding, σ1 Receptor” value in assay [6] was 59%. In assay [7], the “mode of action on serotonin uptake (in words)” value is “antagonist” and 10 µM produced 86% inhibition. Also, the “Percentage Inhibition of Specific Binding, α2A Receptor” value in assay [8] is 13%.
